Source: patent publication US20250381168A1, “VLA4 INHIBITORS AND USES THEREOF” (Washington University, priority 2022, published 2025)
Entries after “also recorded” stand apart in the source; their conditions may differ. Read-outs that look alike come from different tables or passages of the source. Values belong to the molecule of their own block, whether it stands above or below them.

Experiments:
[1] = system: hematopoietic stem/progenitor cells (HSPCs); test: HSPC mobilization into peripheral blood, colony forming unit (CFU) assay; as to HSPC mobilization, result in words: test concentration or dose not given here; as to No. CFU (×10^3)/mL ± SD, 6 hr: test concentration or dose not given here; conditions: mice; for No. CFU (x10^3)/mL ± SD, 2 hr / No. CFU (x10^3)/mL ± SD, 4 hr / No. CFU (x10^3)/mL ± SD, 6 hr / No. CFU (x10^3)/mL ± SD, 8 hr: single injection; for No. CFU (x10^3)/mL ± SD, 2 hr: 2 hr post dose (TABLE 12); for No. CFU (x10^3)/mL ± SD, 4 hr: 4 hr post dose (TABLE 12); for No. CFU (x10^3)/mL ± SD, 6 hr: 6 hr post dose (TABLE 12); for No. CFU (x10^3)/mL ± SD, 8 hr: 8 hr post dose (TABLE 12)
VLA-4 (a4b1) = VLA-4 (a4b1) (Homo sapiens (Human), UniProt P05556+P13612); test: sVCAM flow cytometry cell-based assay (inhibition of soluble VCAM-1 binding to G2 ALL cells);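 also: compounds at 0.1 to 1000 nM preincubated 30 min with G2 ALL cells, then VCAM/Fc added for 30 min, bound VCAM-1 detected by PE secondary antibody, percent binding cells by flow cytometry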
Sequence of VLA-4 (a4b1) (P13612 34-1032): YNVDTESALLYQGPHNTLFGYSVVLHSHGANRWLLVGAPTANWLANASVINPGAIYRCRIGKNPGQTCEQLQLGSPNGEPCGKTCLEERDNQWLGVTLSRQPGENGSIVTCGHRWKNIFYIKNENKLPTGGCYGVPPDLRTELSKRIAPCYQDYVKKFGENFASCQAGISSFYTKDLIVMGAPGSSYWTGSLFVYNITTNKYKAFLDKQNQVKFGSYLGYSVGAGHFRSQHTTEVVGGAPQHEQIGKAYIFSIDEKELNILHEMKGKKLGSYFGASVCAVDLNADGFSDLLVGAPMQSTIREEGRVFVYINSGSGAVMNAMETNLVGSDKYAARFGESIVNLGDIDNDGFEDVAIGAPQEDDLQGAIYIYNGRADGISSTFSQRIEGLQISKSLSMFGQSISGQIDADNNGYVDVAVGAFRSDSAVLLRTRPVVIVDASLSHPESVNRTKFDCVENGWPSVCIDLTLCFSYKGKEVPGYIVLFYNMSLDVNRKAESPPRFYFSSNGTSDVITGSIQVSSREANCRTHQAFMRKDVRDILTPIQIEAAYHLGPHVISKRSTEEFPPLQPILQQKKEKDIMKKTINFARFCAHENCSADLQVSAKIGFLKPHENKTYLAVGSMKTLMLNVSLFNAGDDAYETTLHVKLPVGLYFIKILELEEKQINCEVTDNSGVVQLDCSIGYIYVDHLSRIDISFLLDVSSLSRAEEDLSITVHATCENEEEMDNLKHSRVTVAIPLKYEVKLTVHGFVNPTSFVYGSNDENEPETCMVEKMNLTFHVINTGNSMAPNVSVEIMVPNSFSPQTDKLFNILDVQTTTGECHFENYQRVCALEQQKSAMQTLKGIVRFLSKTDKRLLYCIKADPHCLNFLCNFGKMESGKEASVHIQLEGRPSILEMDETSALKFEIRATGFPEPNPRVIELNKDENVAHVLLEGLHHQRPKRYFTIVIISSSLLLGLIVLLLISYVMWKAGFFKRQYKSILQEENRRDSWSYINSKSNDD
Sequence of VLA-4 (a4b1) (P05556 21-798): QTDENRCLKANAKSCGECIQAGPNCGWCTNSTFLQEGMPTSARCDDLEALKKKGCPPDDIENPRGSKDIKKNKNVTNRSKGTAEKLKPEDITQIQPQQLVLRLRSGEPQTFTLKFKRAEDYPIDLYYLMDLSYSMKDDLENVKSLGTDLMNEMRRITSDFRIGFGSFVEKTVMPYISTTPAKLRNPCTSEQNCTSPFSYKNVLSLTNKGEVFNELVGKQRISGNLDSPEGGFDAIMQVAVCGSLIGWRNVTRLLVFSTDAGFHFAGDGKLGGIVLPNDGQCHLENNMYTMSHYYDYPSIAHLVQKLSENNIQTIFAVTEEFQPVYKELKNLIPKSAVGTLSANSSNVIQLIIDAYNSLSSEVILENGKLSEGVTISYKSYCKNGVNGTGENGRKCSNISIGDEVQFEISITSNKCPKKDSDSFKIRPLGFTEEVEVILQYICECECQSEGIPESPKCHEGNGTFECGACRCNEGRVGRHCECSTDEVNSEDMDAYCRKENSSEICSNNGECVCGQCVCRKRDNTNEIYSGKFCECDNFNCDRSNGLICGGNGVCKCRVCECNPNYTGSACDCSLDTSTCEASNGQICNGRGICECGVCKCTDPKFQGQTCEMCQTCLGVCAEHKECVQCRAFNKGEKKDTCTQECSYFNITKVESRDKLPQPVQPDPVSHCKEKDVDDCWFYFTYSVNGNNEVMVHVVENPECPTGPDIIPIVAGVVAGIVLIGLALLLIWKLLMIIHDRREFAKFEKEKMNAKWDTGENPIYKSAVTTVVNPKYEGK

integrin a4b7 = integrin a4b7 (Homo sapiens (Human), UniProt P13612+P26010); test: a4b7 solid phase receptor assay (SPRA); conditions: recombinant human a4b7 binding to plate-coated human VCAM1 (TABLE 4)
Sequence of integrin a4b7 (P13612 34-970): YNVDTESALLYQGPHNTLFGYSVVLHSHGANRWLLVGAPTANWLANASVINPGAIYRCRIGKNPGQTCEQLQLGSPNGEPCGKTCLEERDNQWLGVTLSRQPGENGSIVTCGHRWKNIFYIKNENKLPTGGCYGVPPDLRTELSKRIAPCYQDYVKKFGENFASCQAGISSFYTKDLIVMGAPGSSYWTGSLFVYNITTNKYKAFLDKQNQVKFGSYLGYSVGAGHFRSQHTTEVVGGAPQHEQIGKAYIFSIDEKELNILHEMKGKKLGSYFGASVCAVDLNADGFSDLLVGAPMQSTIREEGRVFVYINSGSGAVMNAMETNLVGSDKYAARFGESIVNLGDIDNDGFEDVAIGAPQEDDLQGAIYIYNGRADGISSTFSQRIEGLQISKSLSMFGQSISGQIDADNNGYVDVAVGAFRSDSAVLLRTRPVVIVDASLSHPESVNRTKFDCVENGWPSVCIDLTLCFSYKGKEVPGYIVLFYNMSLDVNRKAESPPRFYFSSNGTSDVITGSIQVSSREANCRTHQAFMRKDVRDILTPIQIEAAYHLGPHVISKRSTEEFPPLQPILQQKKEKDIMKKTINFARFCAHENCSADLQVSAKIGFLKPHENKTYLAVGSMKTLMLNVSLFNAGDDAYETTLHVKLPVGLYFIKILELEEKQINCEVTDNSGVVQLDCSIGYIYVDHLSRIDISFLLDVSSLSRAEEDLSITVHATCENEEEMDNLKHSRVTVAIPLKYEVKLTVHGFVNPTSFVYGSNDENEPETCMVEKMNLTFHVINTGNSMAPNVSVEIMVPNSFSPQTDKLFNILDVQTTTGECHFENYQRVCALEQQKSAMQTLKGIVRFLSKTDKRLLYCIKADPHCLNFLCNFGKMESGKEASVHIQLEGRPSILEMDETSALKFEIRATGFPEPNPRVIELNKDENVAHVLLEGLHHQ
Sequence of integrin a4b7 (P26010 20-723): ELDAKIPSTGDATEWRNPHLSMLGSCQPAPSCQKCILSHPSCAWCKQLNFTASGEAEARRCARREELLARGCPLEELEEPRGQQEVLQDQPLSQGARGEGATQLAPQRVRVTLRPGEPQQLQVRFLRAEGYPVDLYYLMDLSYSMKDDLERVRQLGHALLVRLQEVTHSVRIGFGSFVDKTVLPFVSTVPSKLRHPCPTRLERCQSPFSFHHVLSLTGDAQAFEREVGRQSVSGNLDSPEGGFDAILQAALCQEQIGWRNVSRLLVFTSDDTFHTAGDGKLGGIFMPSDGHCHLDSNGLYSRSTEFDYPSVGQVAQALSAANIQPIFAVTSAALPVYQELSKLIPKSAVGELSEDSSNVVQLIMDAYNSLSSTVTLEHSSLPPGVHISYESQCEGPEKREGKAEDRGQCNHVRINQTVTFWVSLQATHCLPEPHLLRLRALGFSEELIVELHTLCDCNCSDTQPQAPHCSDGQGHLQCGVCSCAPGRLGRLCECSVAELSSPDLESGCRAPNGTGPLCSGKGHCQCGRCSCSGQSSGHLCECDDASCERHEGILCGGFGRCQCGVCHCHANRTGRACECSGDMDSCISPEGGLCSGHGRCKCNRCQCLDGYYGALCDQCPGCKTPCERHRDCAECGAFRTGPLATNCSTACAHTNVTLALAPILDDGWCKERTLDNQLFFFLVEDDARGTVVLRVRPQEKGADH
Protocol: Wells were washed 3 times with TBS+ and blocking buffer (TBS+ with 1% bovine serum albumin), the plate was incubated for 1 hr at 37° C., and then washed 3× with TBS+ buffer. Recombinant human a4b7 (R & D Systems) was diluted to 1 μg/ml in TBS+/0.1% bovine serum albumin. Test compounds were diluted into the integrin solution and added to the washed ligand-coated plate according to a standard template with each sample repeated in triplicate. After incubation for 2 hr at room temperature, the plate was washed 3× with 150 μl of TBS+ buffer. To each well, biotinylated anti-A4 antibody (R & D Systems) at 1 μg/ml in TBS+/0.1% BSA was added and the plate covered and incubated for 1 hr at room temperature. After washing the plate 3× with TBS+ buffer, streptavidin-conjugated horseradish peroxidase (R & D Systems) diluted in TBS+ blocking buffer was added to the wells and the plate incubated for 20 min at room temperature. The plate was washed 3× with TBS+ buffer followed by addition of 50 μl of TMB substrate (Sigma T4444). After incubation for 20 min at room temperature, plates were stopped with TMB stop solution (Sigma S5689) by colorimetric detection at 450 nm wavelength using a Tecan Safire II plate reader.

[2] = as listed in TABLE 12, read-out: sVCAM IC50
[3] = inhibition of sVCAM-1 binding to human G2 ALL cells (TABLE 3), read-out: SVCAM-1, IC50

- IC50 (VLA-4 (a4b1); as listed in TABLE 5, read-out: sVCAM IC50): 4.9 nM
- IC50 (VLA-4 (a4b1); as listed in TABLE 7, read-out: sVCAM IC50): 4.9 nM
- IC50 (VLA-4 (a4b1); [2]): 4.9 nM
- IC50 (VLA-4 (a4b1); as listed in TABLE 20, read-out: sVCAM IC50): 4.9 nM
- IC50 (VLA-4 (a4b1); [3]): 4.98 nM
- IC50 (integrin a4b7): 1.1 nM
Structure (SMILES): COc1cccc(OC)c1-c1ccc(C[C@H](CC(=O)c2c(Cl)cc(C(=O)O)cc2Cl)C(=O)O)cc1 [Example C1]
- time to which HSPC mobilization is extended after a single dose [1]: ≤ 2 h
- HSPC mobilization, result in words ([1]; single dose): have returned to baseline
- No. CFU (×10^3)/mL ± SD, 0.5 hr ([1]; single dose, peripheral blood, 0.5 hr post dose (TABLE 7)): 0.96 ± 0.33 (×10^3)/mL
- No. CFU (×10^3)/mL ± SD, 1 hr ([1]; single dose, peripheral blood, 1 hr post dose (TABLE 20)): 2.16 ± 1.22 (×10^3)/mL
- No. CFU (×10^3)/mL ± SD, 2 hr ([1]; single dose, peripheral blood, 2 hr post dose (TABLE 7)): 0.33 ± 0.14 (×10^3)/mL
- No. CFU (×10^3)/mL ± SD, 4 hr ([1]; single dose, peripheral blood, 4 hr post dose (TABLE 7)): 0.08 ± 0.04 (×10^3)/mL
- No. CFU (×10^3)/mL ± SD, 4 hr ([1]; single dose, peripheral blood, 4 hr post dose (TABLE 20)): 0.26 ± 0.18 (×10^3)/mL
- No. CFU (×10^3)/mL ± SD, 8 hr ([1]; single dose, peripheral blood, 8 hr post dose (TABLE 20)): 0.13 ± 0.10 (×10^3)/mL
- HSPC mobilization, result in words ([1]; single dose, listed as Comparator Compound 1): returned to baseline by 4 hours
- No. CFU (x10^3)/mL ± SD, 2 hr ([1]; peripheral blood): 0.67 ± 0.12 (x10^3)/mL
- No. CFU (x10^3)/mL ± SD, 4 hr ([1]; peripheral blood): 0.42 ± 0.14 (x10^3)/mL
- No. CFU (x10^3)/mL ± SD, 6 hr ([1]; peripheral blood): 0.26 ± 0.07 (x10^3)/mL
- No. CFU (x10^3)/mL ± SD, 8 hr ([1]; peripheral blood): 0.22 ± 0.02 (x10^3)/mL
- No. CFU (×10^3)/mL ± SD, 0.25 hr ([1]; single s.c. injection, peripheral blood, 0.25 hr post dose (TABLE 5)): 3.98 ± 1.09 (×10^3)/mL
- No. CFU (×10^3)/mL ± SD, 2 hr ([1]; single s.c. injection, peripheral blood, 2 hr post dose (TABLE 5)): 0.86 ± 0.25 (×10^3)/mL
- No. CFU (×10^3)/mL ± SD, 4 hr ([1]; single s.c. injection, peripheral blood, 4 hr post dose (TABLE 5)): 0.27 ± 0.20 (×10^3)/mL

- IC50 (VLA-4 (a4b1); as listed in TABLE 10, read-out: sVCAM IC50): 1.49 nM
- IC50 (VLA-4 (a4b1); [2]): 1.49 nM
- IC50 (VLA-4 (a4b1); as listed in TABLE 17, read-out: sVCAM IC50): 1.49 nM
- IC50 (VLA-4 (a4b1); [3]): 1.49 nM
- IC50 (integrin a4b7): 1.5 nM
Structure (SMILES): COCCOCCOCCOCCOCCOCCOCCOCCOCCOCCOCCOCCOCCOCCOCCOCCOCCOCCOCCOCCOCCOCCOCCOCCOCc1cc(OC)c(-c2ccc(C[C@H](NC(=O)c3c(Cl)cc(C(=O)O)cc3Cl)C(=O)O)cc2)c(OC)c1 [Example C17, (S)-4-((1-carboxy-2-(2′,6′-dimethoxy-4′-(2,5,8,11,14,17,20,23,26,29,32,35,38,41,44,47,50,53,56,59,62,65,68,71,74-pentacosaoxapentaheptacontyl)-[1,1′-biphenyl]-4-yl)ethyl)carbamoyl)-3,5-dichlorobenzoic acid]
- HSPC mobilization in the triple combination regimen with plerixafor and truncated Groβ [1]: does not extend mobilization out to 6 hours
- time to which HSPC mobilization is extended after a single dose [1]: ≤ 2 h
- No. CFU (×10^3)/mL ± SD, 2 hr ([1]; alone or in combination with Plerixafor and tGroβ, peripheral blood, 2 hr (TABLE 17)): 4.77 ± 1.21 (×10^3)/mL
- No. CFU (×10^3)/mL ± SD, 4 hr ([1]; alone or in combination with Plerixafor and tGroβ, peripheral blood, 4 hr (TABLE 17)): 0.81 ± 0.26 (×10^3)/mL
- No. CFU (×10^3)/mL ± SD, 6 hr ([1]; alone or in combination with Plerixafor and tGroβ, peripheral blood, 6 hr (TABLE 17)): 0.26 ± 0.13 (×10^3)/mL
- HSPC mobilization, result in words ([1]; single dose): returning to baseline by 4 hours and no mobilization at 6 hours; also recorded: does not extend mobilization; also recorded: do not provide for extended mobilization
- No. CFU (×10^3)/mL ± SD, 2 hr ([1]; single dose, peripheral blood, 2 hr post dose (TABLE 10)): 3.67 ± 1.09 (×10^3)/mL
- No. CFU (×10^3)/mL ± SD, 4 hr ([1]; single dose, peripheral blood, 4 hr post dose (TABLE 10)): 0.57 ± 0.21 (×10^3)/mL
- No. CFU (×10^3)/mL ± SD, 6 hr ([1]; single dose, peripheral blood, 6 hr post dose (TABLE 10)): 0.28 ± 0.17 (×10^3)/mL
- No. CFU (x10^3)/mL ± SD, 2 hr ([1]; peripheral blood): 4.32 ± 1.23 (x10^3)/mL
- No. CFU (x10^3)/mL ± SD, 4 hr ([1]; peripheral blood): 1.21 ± 0.40 (x10^3)/mL
- No. CFU (x10^3)/mL ± SD, 6 hr ([1]; peripheral blood): 0.26 ± 0.07 (x10^3)/mL
- No. CFU (x10^3)/mL ± SD, 8 hr ([1]; peripheral blood): 0.19 ± 0.09 (x10^3)/mL
